Reference: PubChem BioAssay (NCI)
Values joined by “and” are separate entries in the source; they are usually repeats but may differ in a detail not shown here. Equal entries are not always repeated.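 How tested: cells in 96-well plates exposed to compound for 48 hours at five concentrations. GI50 marks 50% less growth. TGI: total growth inhibition.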 Where a SMILES comes first, the peptide text is derived from it. [ ]: non-standard residue; d: D form. Orn = NCCC[CH](N)C(=O)O

Tests used:
Assay in all cases: growth of human tumour cells (NCI), 48 h
HOP-62 NSCLC = test system: HOP-62 NSCLC
PC-3 prostate = test system: PC-3 prostate
LOX IMVI melanoma = test system: LOX IMVI melanoma
A498 renal = test system: A498 renal
SW-620 colon = test system: SW-620 colon
TK-10 renal = test system: TK-10 renal
HS 578T breast = test system: HS 578T breast
NCI-H23 lung = test system: NCI-H23 lung
MALME-3M melanoma = test system: MALME-3M melanoma
SK-OV-3 ovarian = test system: SK-OV-3 ovarian

Compound | GI50 (HOP-62 NSCLC) | TGI (HOP-62 NSCLC) | GI50 (PC-3 prostate) | TGI (PC-3 prostate) | GI50 (LOX IMVI melanoma) | TGI (LOX IMVI melanoma) | GI50 (A498 renal) | TGI (A498 renal) | GI50 (SW-620 colon) | TGI (SW-620 colon) | GI50 (TK-10 renal) | TGI (TK-10 renal) | GI50 (HS 578T breast) | TGI (HS 578T breast) | GI50 (NCI-H23 lung) | TGI (NCI-H23 lung) | GI50 (MALME-3M melanoma) | TGI (MALME-3M melanoma) | GI50 (SK-OV-3 ovarian) | TGI (SK-OV-3 ovarian)
COc1ccc(/C=C/C(=O)c2ccc(NC(=O)CSc3nnc(-c4cc(OC)c(OC)c(OC)c4)o3)cc2)cc1 | 2130 nM | 4530 nM | 1750 nM | 3300 nM | 320 nM | 1280 nM | 11000 nM | 23600 nM | 1860 nM | 3600 nM | 1520 nM | 3030 nM | 2650 nM | 7760 nM | 1880 nM | 3970 nM | 1680 nM | 3450 nM | 2420 nM | 5680 nM
O=CNc1ccc2c(c1)Cc1cc([N+](=O)[O-])ccc1-2 | 8710 nM | > 100000 nM | 4870 nM | > 100000 nM | 2620 nM | 98500 nM | 2020 nM | > 58100 nM | 2050 nM | > 100000 nM | 10200 nM | > 100000 nM | 1230 nM | 5160 nM | 4610 nM | > 100000 nM | 5970 nM | > 100000 nM | 4390 nM | 27400 nM
CCCNNC(=O)c1ccc(CNC(=O)/C=C/c2ccccc2)cc1 | 110 nM | > 100000 nM | 173 nM | > 100000 nM | 139 nM | 306 nM | 123 nM | 360 nM | 125 nM | 1060 nM | 34.3 nM | 577 nM | 207 nM | > 20800 nM | 228 nM | > 23500 nM | 47.5 nM | > 100000 nM | 134 nM | 1470 nM
Cn1cc(C2=C(c3cccc(NCC(O)CO)c3)C(=O)NC2=O)c2cc(Cl)ccc21 (stereo not given) | 4900 nM | 18000 nM | 2880 nM | 12900 nM | 3050 nM | 15100 nM | 81.7 nM | 4430 nM | 4260 nM | 15700 nM | 5670 nM | 16800 nM | 214 nM | 5770 nM | 4640 nM | 13300 nM | 7840 nM | 14800 nM | 4780 nM | > 23000 nM
O=C(O)C#Cc1ccc([N+](=O)[O-])cc1 | – | > 100000 nM | – | > 100000 nM | – | > 100000 nM | – | > 100000 nM | – | > 100000 nM | – | > 100000 nM | – | > 100000 nM | – | > 100000 nM | – | > 100000 nM | – | > 100000 nM
O=C(O)c1cn(C2CC2)c2cc(N3CCN(C(=O)Nc4nc(-c5ccc(Cl)cc5)cs4)CC3)c(F)cc2c1=O | 3000 nM | 96100 nM | 2700 nM | > 100000 nM | 567 nM | > 100000 nM | 1470 nM | 9460 nM | 4700 nM | > 100000 nM | 4110 nM | > 100000 nM | 1910 nM | 66100 nM | 2080 nM | 39500 nM | 1470 nM | 5830 nM | 2350 nM | 8120 nM
CC(C)CC1NC(=O)C(CCCN)NC(=O)C(C(C)C)NC(=O)C2CCCN2C(=O)C(Cc2ccccc2)NC(=O)C(CC(C)C)NC(=O)C(CCCN)NC(=O)C(C(C)C)NC(=O)C2CCCN2C(=O)C(Cc2ccccc2)NC1=O (stereo not given) (cyclo(FPV[Orn]LFPV[Orn]L); configuration not given here) | 5.95 nM | 418 nM and 1310 nM | 7.03 nM | 140 nM and 1120 nM | 10.1 nM and 22.1 nM | 47.4 nM and 54 nM | 92 nM and 106 nM | 743 nM and 632 nM | 12.3 nM and 23.9 nM | 422 nM and 1170 nM | 21.3 nM and 104 nM | 1510 nM and 5710 nM | 16.6 nM and 45.3 nM | 784 nM and 1640 nM | 8.35 nM and 19.2 nM | 101 nM and 175 nM | 10.8 nM and 28.6 nM | 120 nM and 92.9 nM | 10.8 nM | 505 nM and 1390 nM
COc1ccc(-c2oncc2-c2cc(OC)c3c(c2)OCO3)cc1 | 3910 nM | > 71100 nM | 2990 nM | > 66100 nM | 4010 nM | > 60100 nM | 1490 nM | 7400 nM | 1180 nM | > 100000 nM | 7300 nM | > 100000 nM | 2490 nM | 21200 nM | 4940 nM | > 100000 nM | > 100000 nM | > 100000 nM | 3760 nM | > 40400 nM
Nc1nn(C(=O)Nc2ccc(Cc3ccccc3)cc2)c2ccccc12 | 13700 nM | 46500 nM | 13500 nM | 51100 nM | 477 nM | 16100 nM | 16700 nM | 31500 nM | 3620 nM | 41500 nM | 27200 nM | > 100000 nM | 17200 nM | 71800 nM | 16800 nM | 83500 nM | 19200 nM | 64100 nM | 36900 nM | > 100000 nM
COc1cccc(-c2cc(NCc3ccc4c(c3)OCO4)nc(N)n2)c1 | 362 nM | 17400 nM | 86.8 nM | 48300 nM | 77.3 nM | 19400 nM | 33 nM | 763 nM | 42.2 nM | 16500 nM | 8960 nM | 29000 nM | 50.5 nM | 27600 nM | 135 nM | 16500 nM | 112 nM | 26300 nM | 52.6 nM | 583 nM
CCN(CC)CCCC(C)Nc1ccnc2cc(Cl)c(SCc3ccccc3)cc12 (stereo not given) | 1370 nM | 3010 nM | 1720 nM | 3960 nM | 199 nM | 552 nM | 1220 nM | 2680 nM | 928 nM | 2920 nM | 512 nM | 1600 nM | 1970 nM | 5730 nM | 1550 nM | 3570 nM | 1710 nM | 3680 nM | 1930 nM | 3690 nM
Cc1cccc2c(=O)c3c(sc12)c(NCCN)nc1ccccc13 | 728 nM | 1650 nM | 717 nM | 1490 nM | 783 nM | 1480 nM | 2720 nM | 6920 nM | 794 nM | 1570 nM | 1150 nM | 1970 nM | 1500 nM | 4780 nM | 870 nM | 1960 nM | 841 nM | 1590 nM | 3170 nM | 9900 nM
